Assays:
[1] = system: HCT-116; assay: Antiproliferative activity against human HCT116 cells after 72 hrs by MTT assay; assay type: functional, cell-based; details: HCT-116, 72 h
[2] = system: HL-60; assay: Antiproliferative activity against human HL60 cells at 4 uM after 36 hrs by PrestoBlue dye based assay relative to control; assay type: functional
[3] = system: Jurkat; assay: cells; assay type: functional, cell-based; details: Homo sapiens
[4] = cells; assay type: ADME, cell-based; details: Homo sapiens, AC10, 24 h
[5] = system: KMS-12-BM; assay: cells; assay type: functional, cell-based; details: Homo sapiens, 48 h
[6] = system: HEL 92.1.7; assay: cells; assay type: functional, cell-based; details: Homo sapiens, HEL 92.1.7, 36 h
[7] = system: HL-60; assay: Antiproliferative activity against human HL60 cells; assay type: functional, cell-based
[8] = target: Histone deacetylase 1 (Homo sapiens, UniProt Q13547); assay: Inhibition of C-terminal FLAG His tagged full length human recombinant HDAC1 (1 to 482 residues) expressed in baculovirus infected sf21 cells using RHKKAc as substrate in presence of ATP
[9] = system: MCF7; assay: cells; assay type: functional, cell-based; details: Homo sapiens, MCF7, 72 h
[10] = system: MDA-MB-231; assay: cells; assay type: functional, cell-based; details: Homo sapiens, MDA-MB-231, 72 h
[11] = target: T1, Protein deacetylase HDAC6 (Homo sapiens, UniProt Q9UBN7); assay: Inhibition of N-terminal GST tagged human HDAC6 (1 to 1215 residues) expressed in baculovirus infected insect cells using RHKKAc as substrate in presence of ATP
T1 sequence (Q9UBN7 whole entry): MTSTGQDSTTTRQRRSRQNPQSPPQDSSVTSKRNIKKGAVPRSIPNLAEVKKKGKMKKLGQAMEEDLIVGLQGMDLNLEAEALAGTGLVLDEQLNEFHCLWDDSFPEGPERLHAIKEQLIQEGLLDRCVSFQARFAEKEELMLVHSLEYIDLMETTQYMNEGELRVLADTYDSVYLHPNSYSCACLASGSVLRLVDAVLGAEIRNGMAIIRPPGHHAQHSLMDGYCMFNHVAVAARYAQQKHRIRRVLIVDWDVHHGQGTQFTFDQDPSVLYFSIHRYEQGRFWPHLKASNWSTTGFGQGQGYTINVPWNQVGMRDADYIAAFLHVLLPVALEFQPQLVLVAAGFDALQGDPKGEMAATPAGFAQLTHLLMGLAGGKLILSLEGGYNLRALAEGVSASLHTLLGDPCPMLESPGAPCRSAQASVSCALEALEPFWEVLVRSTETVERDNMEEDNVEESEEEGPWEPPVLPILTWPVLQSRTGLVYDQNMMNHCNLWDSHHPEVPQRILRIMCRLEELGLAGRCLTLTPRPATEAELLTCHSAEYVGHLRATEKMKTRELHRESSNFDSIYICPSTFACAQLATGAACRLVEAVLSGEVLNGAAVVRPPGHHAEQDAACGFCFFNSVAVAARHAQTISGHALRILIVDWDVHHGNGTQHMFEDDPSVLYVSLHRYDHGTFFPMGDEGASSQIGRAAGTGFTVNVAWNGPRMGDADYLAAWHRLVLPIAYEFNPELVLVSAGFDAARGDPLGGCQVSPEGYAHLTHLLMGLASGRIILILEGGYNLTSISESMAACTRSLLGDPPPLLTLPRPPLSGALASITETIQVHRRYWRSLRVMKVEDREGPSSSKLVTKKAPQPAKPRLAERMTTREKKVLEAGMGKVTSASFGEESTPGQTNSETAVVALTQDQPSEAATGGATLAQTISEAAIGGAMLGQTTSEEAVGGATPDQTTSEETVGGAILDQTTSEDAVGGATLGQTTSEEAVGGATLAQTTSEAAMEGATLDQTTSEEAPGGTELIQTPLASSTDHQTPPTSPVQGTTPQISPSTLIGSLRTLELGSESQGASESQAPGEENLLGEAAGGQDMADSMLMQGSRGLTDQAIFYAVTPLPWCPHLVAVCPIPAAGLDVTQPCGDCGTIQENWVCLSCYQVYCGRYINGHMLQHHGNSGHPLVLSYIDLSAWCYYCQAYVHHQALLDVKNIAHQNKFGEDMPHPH

[12] = target: T2, Tyrosine-protein kinase JAK2 (Homo sapiens, UniProt O60674); assay: Binding affinity to N-terminal His tagged human recombinant JAK2 (1014 to 1132 residues) expressed in Escherichia coli after 60 to 90 mins by LC/MS analysis; details: read-out: Kd(app)
[13] = system: PC-3; assay: cells; assay type: functional, cell-based; details: Homo sapiens, PC-3, 72 h
[14] = target: T2, Tyrosine-protein kinase JAK2; assay: Inhibition of human JAK2 using poly[Glu:Tyr] as substrate in presence of [gamma-33P]-ATP
[15] = cells; assay type: functional, cell-based; details: Homo sapiens, NKYS, 48 h
[16] = system: MOLM-14; assay: cells; assay type: functional, cell-based; details: Homo sapiens, MOLM-14, 48 h

T2 sequence (O60674 whole entry, the tested form may be a part): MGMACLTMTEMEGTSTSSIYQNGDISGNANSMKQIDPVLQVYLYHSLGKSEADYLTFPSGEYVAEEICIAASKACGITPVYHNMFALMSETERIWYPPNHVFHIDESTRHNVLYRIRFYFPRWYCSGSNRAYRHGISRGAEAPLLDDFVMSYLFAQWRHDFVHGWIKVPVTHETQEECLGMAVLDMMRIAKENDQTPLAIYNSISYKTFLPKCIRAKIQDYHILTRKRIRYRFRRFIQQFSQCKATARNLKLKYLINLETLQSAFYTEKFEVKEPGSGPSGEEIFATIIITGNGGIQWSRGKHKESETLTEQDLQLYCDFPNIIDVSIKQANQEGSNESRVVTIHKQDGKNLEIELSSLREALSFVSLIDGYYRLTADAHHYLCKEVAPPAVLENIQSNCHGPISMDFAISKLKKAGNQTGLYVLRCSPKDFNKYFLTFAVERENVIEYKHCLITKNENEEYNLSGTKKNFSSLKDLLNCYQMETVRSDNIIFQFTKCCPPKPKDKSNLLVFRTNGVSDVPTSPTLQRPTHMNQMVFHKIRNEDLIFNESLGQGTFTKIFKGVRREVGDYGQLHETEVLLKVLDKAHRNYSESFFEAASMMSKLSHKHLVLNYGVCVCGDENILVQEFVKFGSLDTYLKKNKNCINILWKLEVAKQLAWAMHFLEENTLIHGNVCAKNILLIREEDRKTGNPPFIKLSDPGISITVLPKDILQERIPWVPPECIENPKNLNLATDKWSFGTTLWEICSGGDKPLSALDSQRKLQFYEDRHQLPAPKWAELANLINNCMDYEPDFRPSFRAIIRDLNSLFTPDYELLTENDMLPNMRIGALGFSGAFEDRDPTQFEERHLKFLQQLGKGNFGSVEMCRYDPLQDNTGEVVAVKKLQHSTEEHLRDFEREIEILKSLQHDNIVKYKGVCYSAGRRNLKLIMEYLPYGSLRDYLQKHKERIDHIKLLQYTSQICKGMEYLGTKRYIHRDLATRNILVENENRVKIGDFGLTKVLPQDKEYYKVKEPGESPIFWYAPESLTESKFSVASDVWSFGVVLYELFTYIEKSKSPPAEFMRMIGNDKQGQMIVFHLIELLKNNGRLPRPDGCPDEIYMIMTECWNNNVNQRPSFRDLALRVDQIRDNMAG
Sequence of Histone deacetylase 1 (Q13547 whole entry, the tested form may be a part): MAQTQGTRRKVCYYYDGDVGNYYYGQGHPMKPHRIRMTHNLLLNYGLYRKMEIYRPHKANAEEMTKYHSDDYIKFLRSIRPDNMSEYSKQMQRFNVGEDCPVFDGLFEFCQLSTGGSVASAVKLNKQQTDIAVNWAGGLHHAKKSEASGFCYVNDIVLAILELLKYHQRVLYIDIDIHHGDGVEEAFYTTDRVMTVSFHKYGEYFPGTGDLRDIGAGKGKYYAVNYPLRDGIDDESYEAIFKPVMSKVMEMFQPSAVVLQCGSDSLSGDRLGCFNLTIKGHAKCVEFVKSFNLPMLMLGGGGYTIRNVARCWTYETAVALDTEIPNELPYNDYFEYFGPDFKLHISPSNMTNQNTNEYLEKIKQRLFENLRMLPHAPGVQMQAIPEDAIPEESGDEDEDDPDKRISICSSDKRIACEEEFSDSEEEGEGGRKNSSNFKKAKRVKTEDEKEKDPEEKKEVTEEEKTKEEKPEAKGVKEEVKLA

Row | IC50 [1] [µM] | IC50 [3] [µM] | IC50 [4] [µM] | IC50 [5] [µM] | IC50 [6] [µM] | IC50 [7] [µM] | IC50 [8] [µM] | IC50 [9] [µM] | IC50 [10] [µM] | IC50 [11] [µM] | Kd [12] [µM] | IC50 [13] [µM] | IC50 [14] [µM] | IC50 [15] [µM] | IC50 [16] [µM] | SMILES | Activity [2] [%]
1 | 1.85 | – | – | – | – | – | – | – | – | – | – | – | – | – | – | O=C(CCCCCCC(=O)Nc1ccccc1)NO [VORINOSTAT] | –
2 | – | 1.19 | 2.07 | 2.11 | 0.94 | 4 | – | – | – | – | – | – | – | – | – | O=C(CCCCCCOc1ccc2cc1COC/C=C/COCc1cccc(c1)-c1ccnc(n1)N2)NO | 47
3 | 19.4 | 4 | – | – | > 4 | > 10 | 0.11 | 15.2 | 25.5 | 0.00014 | 1 | 23.9 | 0.265 | – | – | O=C(CCCCCCC(=O)Nc1ccc(NCCCn2cc(-c3ncnc4[nH]ccc34)cn2)cc1)NO | –
4 | > 100 | – | – | – | – | – | – | > 100 | > 100 | 0.55 | 2 | > 100 | 1.2 | – | – | O=C(CCCCCCC(=O)Nc1ccc(NC(=O)CCCn2cc(-c3ncnc4[nH]ccc34)cn2)cc1)NO | –
5 | – | – | 2.02 | 0.75 | – | – | – | – | – | – | – | – | – | 1.6 | 0.079 | C1=N/C2=N/c3ccc(OCCN4CCCC4)c(c3)COC/C=C/COCc3cccc(c3)C(=C1)N2 [PACRITINIB] | –
6 | > 100 | – | – | – | – | – | – | > 100 | > 100 | 0.604 | 5 | > 100 | 3.56 | – | – | O=C(CCCn1cc(-c2ncnc3[nH]ccc23)cn1)NO | –
7 | 11.8 | – | – | – | – | – | 0.036 | 12.4 | 12.9 | 0.0018 | 2 | 12.9 | 0.481 | – | – | O=C(CCCCCCCn1cc(-c2ncnc3[nH]ccc23)cn1)NO | –

Reference: ChEMBL document CHEMBL4028864 (J Med Chem, 2017)
